Laboratory results as given in US6217875A, “Inhibitors of lipoxygenase” (priority 1997, dated 2001).
Entries after “also recorded” stand apart in the source; their conditions may differ. Like-named read-outs stand apart in the source and are kept apart here. Each block holds one compound with its values, some of them ahead of it.

What was measured:
5-lipoxygenase = biological target: T1, 5-lipoxygenase (Rattus norvegicus, UniProt P12527); test: Test of 5-Lipoxygenase Inhibitory Activity (rat PMNL enzyme, radiolabelled arachidonic acid, TLC); format: biochemical, Wistar-King rats
T1 construct: The supernatant was used as the enzyme solution of 5-lipoxygenase; from tissue; host or cells: peritoneal polymorphonuclear leukocytes (PMNL) of glycogen-injected Wistar-King rats, homogenate supernatant
T1 sequence (P12527 1-673): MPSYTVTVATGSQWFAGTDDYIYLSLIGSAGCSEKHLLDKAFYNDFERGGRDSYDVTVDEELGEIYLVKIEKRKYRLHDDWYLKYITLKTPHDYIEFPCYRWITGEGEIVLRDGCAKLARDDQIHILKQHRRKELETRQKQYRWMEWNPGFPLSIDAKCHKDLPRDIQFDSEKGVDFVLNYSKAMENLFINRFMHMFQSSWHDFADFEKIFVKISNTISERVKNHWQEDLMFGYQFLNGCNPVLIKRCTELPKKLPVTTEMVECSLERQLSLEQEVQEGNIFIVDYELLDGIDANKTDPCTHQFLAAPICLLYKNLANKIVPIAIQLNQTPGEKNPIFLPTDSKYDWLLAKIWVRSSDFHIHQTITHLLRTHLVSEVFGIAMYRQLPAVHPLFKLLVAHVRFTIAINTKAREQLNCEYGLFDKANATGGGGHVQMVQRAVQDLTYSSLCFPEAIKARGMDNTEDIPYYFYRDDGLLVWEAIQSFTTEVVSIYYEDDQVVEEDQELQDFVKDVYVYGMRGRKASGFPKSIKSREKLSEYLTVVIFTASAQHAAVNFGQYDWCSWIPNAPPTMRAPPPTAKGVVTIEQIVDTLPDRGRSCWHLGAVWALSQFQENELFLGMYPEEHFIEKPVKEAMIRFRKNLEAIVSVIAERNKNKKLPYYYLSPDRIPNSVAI
Experimental: (1) Formation of Enzyme Solution of 5-Lipoxygenase
Peritoneal polymorphonuclear leukocytes (PMNL) were prepared from normal Wistar-King rats (150-400 g) injected intraperitoneally with 5% (w/v) glycogen (20 mL/kg). A suspension in potassium phosphate buffer (50 mM, pH 7.4) was homogenized and centrifuged. The supernatant was used as the enzyme solution of 5-lipoxygenase.
(2) Measurement of Inhibitory Activity Against 5-Lipoxygenase
0.02 mL Of enzyme solution (2 mg protein/mL) and [1l-^14 C] arachidonic acid ([…]) were incubated with each testing solution (0.02 mL) and Ca^2+ and ATP at 37° C. for 5 min.
After incubation at 37° C. for 5 min, the reaction was terminated by adding 0.2 mL of 0.5 N formic acid, and the metabolite was extracted by 3 mL of ethyl acetate.
Then the extracted solution was subjected to thin-layer chromatography (TLC) and developed with ether/petroleum ether/acetic acid (50:50:1, v/v) at 4° C. The radioactive metabolites generated by 5-lipoxygenase were detected and quantified using autoradiography. The inhibitory activity on 5-lipoxygenase was measured and expressed as a percentage of the control.

lipoxygenase = test: Inhibition of lipoxygenase enzyme activity (general statement); format: biochemical; details: enzyme not given
[1] = tested on: TPA-induced inflammation to the ears of mice; details: skin, 0.5 mg/ear; already reported data; cited from earlier work
[2] = tested on: oxazolone-induced inflammation in the ears of mice; details: skin, 1.0 mg/ear; already reported data; cited from earlier work
[3] = tested on: TPA-induced inflammation to the ears of mice; test: Regulating inflammatory reaction against TPA-induced inflammation to the ears of mice, application to the skin; format: in vivo, mice (ICR); details: for Regulating Coefficient: TPA 0.8 μg/20 μl/ear, after 4 hours
Experimental: (§1) (1) Application to the Skin
Test solutions for Embodiment 1, 3 and 4 were prepared and applied to the right ears of mice (ICR, 5 weeks old, Clair) by adding acetone solution of TPA (0.8 μg/20 μl/ear).

12-lipoxygenase = test: Test of 12-Lipoxygenase Inhibitory Activity (rat platelet enzyme, radiolabelled arachidonic acid, TLC); format: biochemical, Wistar-King rats
Experimental: A test of the substances' effectiveness as inhibitors of the enzyme activity of 12-lipoxygenase was conducted for Embodiment 1 to 4.
(1) Formation of Enzyme Solution of 12-Lipoxygenase
Blood was collected from normal Wistar-King rats (150-400 g) and 0.5 mM of EDTA was added as anti-coagulant. The centrifuged supernatant (1,200 rpm for 10 min.) was again centrifuged at 3,000 rpm for 10 min. The deposited platelets were washed by 25 mM Tris/HCl buffer (pH 7.4) 1 mM EDTA /130 mM NaCl. The suspension of platelets in 1 mM EDTA was homogenized and used as an enzyme solution of 12-lipoxygenase.
(2) Measurement of Inhibitory Activity of 12-Lipoxygenase
Four to six testing solutions with different levels of concentration were prepared for Embodiment 1 to 4. 0.13 mL of enzyme solution (2 mg protein/mL) and [1-^14 C] arachidonic acid ([…]) were incubated with a testing solution (0.02 mL) at 37° C. for 5 min.
After incubation at 37° C. for 5 min., the reaction was terminated by adding 0.2 mL of 0.5 N formic acid, and the metabolite was extracted by adding 3 mL of ethyl acetate. […] The radioactive metabolites of 12 lipoxygenase were detected and quantified using autoradiography. The inhibitory activity of 12-lipoxygenase was measured and expressed as a percentage of the control.

[4] = tested on: oxazolone-induced inflammation in the ears of mice; test: Allergy control test against oxazolone-induced inflammation in the ears of mice, application to the skin; format: in vivo, mice (I.C.R)
Experimental: As described in this section, an allergy control test of oxazolone-induced inflammation to the ears of mice was conducted.
as §1
Oxazolone solution in ethanol (500 μg/100 μl) was applied to the abdominal region of mice (I.C.R, 5 weeks old, Clair), that had been shaved by hair clippers under an anesthetic of Nembutal (Immunization).
After 5 days of immunization, oxazolone solution in acetone, containing a prescribed amount of the sample being tested (Embodiment 1), was applied to the right ears of the mice (Challenge).
Also, as a comparison, data on NDGA (Comparison 7), ketoprophen (Comparison 8), phenidone (Comparison 9) and mepiramine (Comparison 10) which had already been reported, were listed in Table 3.

SMILES: O=C(/C=C/c1ccc(O)c(O)c1)O[C@H](Cc1ccc(O)c(O)c1)C(=O)O [Comparison 1, rosemarinic acid, reference compound]
- IC50 (5-lipoxygenase): 6.2 µM
- Inhibition of lipoxygenase enzyme activity (in words) (lipoxygenase): strongly inhibit lipoxygenase enzyme activity

- IC50 (5-lipoxygenase; rat PMNL enzyme, 37° C., 5 min): 0.6 µM
SMILES: COC(=O)[C@@H](Cc1ccc(O)c(O)c1)OC(=O)/C=C/c1ccc(O)c(O)c1 [Comparison 2, rosemarinic acid methyl ester, reference compound]
- Inhibition of lipoxygenase enzyme activity (in words) (lipoxygenase): strongly inhibit lipoxygenase enzyme activity

SMILES: O=C(O)/C=C/c1ccc(O)c(O)c1 [Comparison 5, caffeic acid, reference compound]
- IC50 (5-lipoxygenase): 72 µM

SMILES: CC(Cc1ccc(O)c(O)c1)C(C)Cc1ccc(O)c(O)c1 (stereo not shown) [Comparison 7, NDGA]
- Regulating Coefficient [1]: 40%
- Regulating Coefficient [2]: 38%

SMILES: CC(C(=O)O)c1cccc(C(=O)c2ccccc2)c1 (stereo not shown) [Comparison 8, ketoprophen]
- Regulating Coefficient [2]: 32%

SMILES: O=C1CCN(c2ccccc2)N1 [Comparison 9, phenidone]
- Regulating Coefficient [2]: 44%

SMILES: COc1ccc(CN(CCN(C)C)c2ccccn2)cc1 [Comparison 10, mepiramine]
- Regulating Coefficient [2]: 38%

SMILES: O=c1cc(-c2ccc(O)c(O)c2)oc2cc(O)cc(O)c12 [Embodiment 1, luteolin]
- Regulating Coefficient ([3]; 0.15 mg/ear): 85%
- Regulating Coefficient ([3]; 0.3 mg/ear): 100%
- Regulating effect against inflammation (in words) ([3]; in words): significant regulating effect against inflammation; also recorded: anti-inflammatory action, which correlated with the concentration of luteolin
- Inhibitory activity against 12-lipoxygenase (in words) (12-lipoxygenase): very strong inhibitory activity, similar to that against 5-lipoxygenase
- Inhibitory activity against 5-lipoxygenase (in words) (5-lipoxygenase; in words): significant 5-LO inhibitory activity; also recorded: stronger inhibitory activity than that of Comparison 1 (rosemarinic acid) and Comparison 2 (rosemarinic acid methyl ester)
- IC50 (5-lipoxygenase; rat PMNL enzyme, 37° C., 5 min): 0.1 µM
- Inhibition of lipoxygenase enzyme activity (in words) (lipoxygenase): strongly inhibit lipoxygenase enzyme activity; also recorded: outstanding inhibitory activity
- Regulating Coefficient ([4]; 0.3 mg/ear, 48 hours after challenge): 52%
- Anti-allergic action (in words) [4]: higher regulating coefficient for a smaller amount of application against Comparisons 7 to 10
- Anti-allergic action (in words) ([4]; listed as luteolin): significant anti-allergic action

SMILES: COc1cc(-c2cc(=O)c3c(O)cc(O)cc3o2)ccc1O [Embodiment 2, chrysoeriol]
- Inhibition of lipoxygenase enzyme activity (in words) (lipoxygenase): strongly inhibit lipoxygenase enzyme activity; also recorded: lesser inhibitory activity

SMILES: O=c1cc(-c2ccc(O)cc2)oc2cc(O)cc(O)c12 [apigenin]
- Inhibition of lipoxygenase enzyme activity (in words) (lipoxygenase): strongly inhibit lipoxygenase enzyme activity
